Assay results reported in US20250017921A1, “PHARMACEUTICAL COMBINATION AND TUMOR TREATMENT” (IDEAYA Biosciences Inc., priority 2020, published 2025).

Assays:
[1] = test system: MEL-202 cells; assay: Cell Titer-Glo cell viability, MEL-202 cells; assay type: cell-based, human
Description: (§1) Luminescence was read using a plate reader (TECAN). Average luminescence of cells treated with DMSO was set to 100% and the % viable cells were calculated accordingly. Synergy/antagonism was analyzed using Combenefit software. […] Interactions between various combinations were evaluated using Bliss, HSA, and Loewe synergy/antagonism models. […] Cell viability was measured by CTG three days/five days after treatment.
(§2) After 24 hrs, the media was changed to 2% FBS/RPMI media. Further, the cell lines were screened for sensitivity to the PKC inhibitor, IDE196 alone or in combination with Hepatocyte growth factor (HGF) (Peprotech); at increasing doses according to Table 1 using a TECAN digital dispenser.

[2] = test system: MM28 cells; assay: Cell Titer-Glo cell viability, MM28 cells; assay type: cell-based, human
Description: as §1, §2

[3] = test system: cMET, MAPK, PI3K and PKC signaling pathways in MM28 cells; assay: Pharmacodynamic western blot, MM28 cells; assay type: cell-based, human
Description: (§3) For all experiments, cells were seeded 24 h before treatment at 2.5×10^6 cells in 10 cm^2 tissue culture plates in 10% RPMI media. For IDE196-HGF combinations, cells were treated with the IDE196 and HGF combinations in 2% RPMI media for 2 hrs according to Table 3. For IDE196-MET inhibitor experiments, 24 h after seeding, the media was replaced with the appropriate inhibitor combinations in 2% RPMI media in the presence of 1.23-3.7 ng/ml HGF for 2 h, according to Table 4.
(§4) For all experiments, cells were washed with ice cold PBS and protein lysates were prepared by lysing cells in a RIPA buffer containing protease and phosphatase inhibitors. Protein samples (15ug/well) were separated on 4-20% Bis-Tris SDS gels and electroblotted to nitrocellulose membranes using iBlot (Invitrogen). The membranes were incubated for 1b in Superblock buffer at RT, followed by overnight incubation with primary antibody at 4° C. The primary antibodies Phospho-Met (Tyr1234/1235) (3077S), cMET (3148S), Phospho-Akt (Ser473) (4060S), Akt (pan) (2920S), Phospho-MARCKS (Ser159/163) (11992S), MARCKS (5607S), PKCδ (9616S), Phospho-p44/42 MAPK (ERK1/2) (Thr202/Tyr204) (4377S), pRAS40 were obtained from Cell Signaling. Total ERK (ab184699) and PKC delta (phospho S299) (ab133456) antibodies were from Abcam. After three washes in PBST, the membrane was incubated with HRP-conjugated secondary antibody for 1 h at RT, washed thrice in PBST, and detected using enhanced chemiluminescence (Biorad Chemidoc XRS).

[4] = test system: 92.1 cells; assay: Cell Titer-Glo cell viability, 92.1 cells; assay type: cell-based, human
Description: as §1, §2

[5] = test system: cMET, MAPK, PI3K and PKC signaling pathways in 92.1 cells; assay: Pharmacodynamic western blot, 92.1 cells; assay type: cell-based, human
Description: as §3, §4

[6] = test system: cMET, MAPK, PI3K and PKC signaling pathways in MEL-202 cells; assay: Pharmacodynamic western blot, MEL-202 cells; assay type: cell-based, human
Description: as §3, §4

[7] = patient; cited from earlier work
[8] = presence of HGF, IDE196 alone and in combination with crizotinib
[9] = presence of HGF, IDE196 alone, up to highest concentrations
[10] = presence of HGF, crizotinib alone or in combination with IDE196
[11] = at or above 3.7 ng/mL HGF, all concentrations of IDE196, HSA, Loewe, Bliss
[12] = dose-dependent, not inhibited by addition of IDE196

For `CC1(N)CCN(c2cccnc2NC(=O)c2nc(-c3ncccc3C(F)(F)F)cnc2N)CC1` [IDE196, 3-amino-N-(3-(4-amino-4-methylpiperidin-1-yl)pyridin-2-yl)-6-(3-(trifluoromethyl)pyridin-2-yl)pyrazine-2-carboxamide], the EC50 ([1]; Homo sapiens, Mel202, 72 h, IDE196 alone, day 3, N=3, read-out: inhibition of cell viability EC50) was 0.25 µM, the EC50 ([2]; Homo sapiens, 120 h, IDE196 alone, day 5, N=3, read-out: inhibition of cell viability EC50) was 0.342 µM and the “pMARCKS and pPKC-delta” value ([3]; IDE196 treatment alone) was “dose-dependent decrease”. The “dose at which pERK was inhibited” value ([3]; absence of HGF, 2 h) was “above 400 nM”, the “effect on pAKT or pPRAS40” value ([3]; presence of HGF, IDE196 alone) was “no effect” and the “pMARCKS or pPKCδ” value [3, 8] was “dose-dependent decrease”. For the same compound, the pERK inhibition [3, 9] was “did not inhibit”, the EC50 ([4]; Homo sapiens, 72 h, IDE196 alone, day 3, N=3, read-out: inhibition of cell viability EC50) was 0.113 µM and the “pMARCKS and pPKC-delta” value ([5]; IDE196 treatment alone) was “dose-dependent decrease”. For the same compound, the “dose at which pERK was inhibited” value ([5]; absence of HGF, 2 h) was “above 400 nM”, the “effect on pAKT or pPRAS40” value ([5]; presence of HGF, IDE196 alone) was “no effect” and the “pMARCKS or pPKCδ” value [5, 8] was “dose-dependent decrease”. The pERK inhibition [5, 9] was “did not inhibit”, the “pMARCKS and pPKC-delta” value ([6]; IDE196 treatment alone) was “dose-dependent decrease” and the “dose at which pERK was inhibited” value ([6]; absence of HGF, 2 h) was “above 400 nM”. The “effect on pAKT or pPRAS40” value ([6]; presence of HGF, IDE196 alone) was “no effect”, the “pMARCKS or pPKCδ” value [6, 8] was “dose-dependent decrease” and the pERK inhibition [6, 9] was “did not inhibit”.

For `CNC(=O)c1ccc(-c2cnc3ncc(Cc4ccc5ncccc5c4)n3n2)cc1F` [capmatinib, reference compound], the “synergy with IDE196 on cell viability” value ([1]; 1.23 ng/ml HGF, all doses of capmatinib, starting at 80 nM IDE196) was “high synergy”, the “synergy with IDE196 on cell viability” value ([2]; 1.23 ng/ml HGF, capmatinib, all the doses) was “high synergy” and the “synergy with IDE196 on cell viability” value ([4]; 1.23 ng/ml HGF, capmatinib, any dose combination) was “did not synergize”. The half-life [7] was “about 6.5 hours”.

With `C[C@@H](Oc1cc(-c2cnn(C3CCNCC3)c2)cnc1N)c1c(Cl)ccc(F)c1Cl` [crizotinib, reference compound] the “HGF induced pMET, pERK, pAKT and pPRAS40 levels” value [3, 10] was “strongly inhibited”, the “pERK, pAKT and pPRAS40” value ([5]; presence of HGF, higher concentrations of crizotinib alone or in combination with IDE196) was “modest decrease” and the “HGF induced pMET, pERK, pAKT and pPRAS40 levels” value [6, 10] was “strongly inhibited”.

For “HGF: Hepatocyte growth factor (Peprotech), the endogenous ligand for the extracellular cMET receptor”, the “cell viability on exposure to exogeneous HGF” value (“cell viability on exposure” for short) ([1]; HGF alone) was “increased cell viability significantly”, the “antagonism of IDE196 induced growth inhibition by HGF” value [1, 11] was “high antagonism” and the “cell viability on exposure” value ([2]; HGF alone) was “increased cell viability significantly”. For the same compound, the “antagonism of IDE196 induced growth inhibition by HGF” value [2, 11] was “high antagonism”, the “pERK (MAPK signaling), pAKT and pPRAS40 (PI3K signaling) on addition of HGF” value (shortened to “pERK (MAPK signaling), pAKT and pPRAS40”) [3, 12] was “induced” and the “antagonism of IDE196 induced growth inhibition by HGF” value ([4]; 1.23 to 33.33 ng/ml HGF, HSA, Loewe, Bliss) was “modest antagonism”. The “cell viability on exposure” value ([4]; HGF alone) was “not”, the “pERK (MAPK signaling), pAKT and pPRAS40” value [5, 12] was “induced” and the “pERK (MAPK signaling), pAKT and pPRAS40” value [6, 12] was “induced”.
